ChEMBL document CHEMBL2029212, “Discovery of 1,4-disubstituted 3-cyano-2-pyridones: a new class of positive allosteric modulators of the metabotropic glutamate 2 receptor” (J Med Chem, 2012)

Legend:
[1] = target: T1, Metabotropic glutamate receptor 2 (Homo sapiens, UniProt Q14416); assay: Positive allosteric modulation of human mGlu2 receptor expressed in CHO cells assessed as glutamate-induced [35S]GTPgammaS binding after 30 mins by liquid scintillation counting; format: functional, cell-based
Target sequence in this assay (Q14416 whole entry): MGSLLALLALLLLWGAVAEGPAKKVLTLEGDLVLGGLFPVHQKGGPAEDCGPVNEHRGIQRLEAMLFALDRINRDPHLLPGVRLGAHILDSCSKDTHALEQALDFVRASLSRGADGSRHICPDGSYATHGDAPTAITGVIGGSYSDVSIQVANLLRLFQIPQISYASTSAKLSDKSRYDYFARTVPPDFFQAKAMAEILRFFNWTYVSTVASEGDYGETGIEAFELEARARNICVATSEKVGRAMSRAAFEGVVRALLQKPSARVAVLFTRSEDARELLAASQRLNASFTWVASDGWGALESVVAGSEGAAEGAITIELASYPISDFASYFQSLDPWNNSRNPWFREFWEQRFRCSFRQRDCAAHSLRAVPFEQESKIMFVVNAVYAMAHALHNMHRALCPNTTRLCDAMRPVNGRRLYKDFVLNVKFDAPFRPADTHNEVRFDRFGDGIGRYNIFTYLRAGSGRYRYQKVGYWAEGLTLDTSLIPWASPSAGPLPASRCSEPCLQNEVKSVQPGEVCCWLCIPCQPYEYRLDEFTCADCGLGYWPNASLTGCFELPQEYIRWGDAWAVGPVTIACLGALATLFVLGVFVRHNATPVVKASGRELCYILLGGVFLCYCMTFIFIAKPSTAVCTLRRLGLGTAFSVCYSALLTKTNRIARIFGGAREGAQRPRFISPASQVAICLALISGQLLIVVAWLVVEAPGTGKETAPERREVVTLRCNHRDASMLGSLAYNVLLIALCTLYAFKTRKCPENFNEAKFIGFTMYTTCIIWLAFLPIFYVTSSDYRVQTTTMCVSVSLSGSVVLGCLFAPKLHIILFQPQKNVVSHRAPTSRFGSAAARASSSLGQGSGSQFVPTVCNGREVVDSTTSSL

[2] = target: T1, Metabotropic glutamate receptor 2; assay: Positive allosteric modulation of human mGlu2 receptor expressed in CHO cells assessed as glutamate-induced [35S]GTPgammaS binding after 30 mins by liquid scintillation counting relative to glutamate; format: functional, cell-based
Target sequence in this assay (Q14416 19-872 limits assumed): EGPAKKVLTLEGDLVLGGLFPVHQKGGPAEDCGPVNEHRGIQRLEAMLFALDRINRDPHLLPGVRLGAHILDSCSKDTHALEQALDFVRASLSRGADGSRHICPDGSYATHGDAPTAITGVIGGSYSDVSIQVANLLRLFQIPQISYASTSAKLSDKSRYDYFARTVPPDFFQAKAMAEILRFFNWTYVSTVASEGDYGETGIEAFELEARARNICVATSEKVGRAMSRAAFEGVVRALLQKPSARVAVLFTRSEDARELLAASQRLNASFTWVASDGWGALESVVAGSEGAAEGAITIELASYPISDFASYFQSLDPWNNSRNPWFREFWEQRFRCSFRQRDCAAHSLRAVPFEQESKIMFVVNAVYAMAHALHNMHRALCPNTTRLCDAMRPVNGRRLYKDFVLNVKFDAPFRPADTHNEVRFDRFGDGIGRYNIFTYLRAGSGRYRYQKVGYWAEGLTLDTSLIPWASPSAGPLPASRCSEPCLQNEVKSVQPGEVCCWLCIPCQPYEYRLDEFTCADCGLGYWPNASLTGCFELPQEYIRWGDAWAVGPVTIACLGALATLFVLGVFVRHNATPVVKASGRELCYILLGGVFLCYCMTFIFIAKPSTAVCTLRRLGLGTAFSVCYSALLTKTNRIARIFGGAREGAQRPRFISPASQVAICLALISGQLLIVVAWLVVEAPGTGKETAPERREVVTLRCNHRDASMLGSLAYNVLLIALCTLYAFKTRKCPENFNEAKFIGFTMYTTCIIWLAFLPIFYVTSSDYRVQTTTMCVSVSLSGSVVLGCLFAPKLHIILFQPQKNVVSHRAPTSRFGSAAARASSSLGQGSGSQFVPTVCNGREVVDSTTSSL

[3] = Drug metabolism in human liver microsomes at 5 uM after 15 mins; format: ADME, Microsome; conditions: read-out: Drug metabolism
[4] = Drug metabolism in rat liver microsomes at 5 uM after 15 mins; format: ADME, Microsome; conditions: read-out: Drug metabolism
[5] = Aqueous solubility of the compound in 20% HP-beta-CD buffer at pH 4; format: physicochemical
hERG = hERG (Homo sapiens, UniProt Q12809); assay: Inhibition of human ERG expressed in HEK293 cells assessed as whole cell current at 3 uM after 5 mins by automated patch-clamp assay relative to control; format: cell-based; conditions: HEK293 cells expressing hERG
[6] = Drug level in Swiss mouse brain at 10 mg/kg, sc after 0.5 hrs; format: ADME, organism-based; set-up: dose 10 mg/kg, route subcutaneous; conditions: read-out: Drug uptake
[7] = Drug level in Swiss mouse brain at 10 mg/kg, sc after 1 hr; format: ADME, organism-based; set-up: dose 10 mg/kg, route subcutaneous; conditions: read-out: Drug uptake
[8] = Drug level in Swiss mouse brain at 10 mg/kg, sc after 1.5 hrs; format: ADME, organism-based; set-up: dose 10 mg/kg, route subcutaneous; conditions: read-out: Drug uptake
[9] = Ratio of drug level in brain to plasma in Swiss mouse at 10 mg/kg, sc after 1 hr; format: ADME, organism-based; set-up: dose 10 mg/kg, route subcutaneous; conditions: read-out: BPR

Sequence of hERG (Q12809 whole entry): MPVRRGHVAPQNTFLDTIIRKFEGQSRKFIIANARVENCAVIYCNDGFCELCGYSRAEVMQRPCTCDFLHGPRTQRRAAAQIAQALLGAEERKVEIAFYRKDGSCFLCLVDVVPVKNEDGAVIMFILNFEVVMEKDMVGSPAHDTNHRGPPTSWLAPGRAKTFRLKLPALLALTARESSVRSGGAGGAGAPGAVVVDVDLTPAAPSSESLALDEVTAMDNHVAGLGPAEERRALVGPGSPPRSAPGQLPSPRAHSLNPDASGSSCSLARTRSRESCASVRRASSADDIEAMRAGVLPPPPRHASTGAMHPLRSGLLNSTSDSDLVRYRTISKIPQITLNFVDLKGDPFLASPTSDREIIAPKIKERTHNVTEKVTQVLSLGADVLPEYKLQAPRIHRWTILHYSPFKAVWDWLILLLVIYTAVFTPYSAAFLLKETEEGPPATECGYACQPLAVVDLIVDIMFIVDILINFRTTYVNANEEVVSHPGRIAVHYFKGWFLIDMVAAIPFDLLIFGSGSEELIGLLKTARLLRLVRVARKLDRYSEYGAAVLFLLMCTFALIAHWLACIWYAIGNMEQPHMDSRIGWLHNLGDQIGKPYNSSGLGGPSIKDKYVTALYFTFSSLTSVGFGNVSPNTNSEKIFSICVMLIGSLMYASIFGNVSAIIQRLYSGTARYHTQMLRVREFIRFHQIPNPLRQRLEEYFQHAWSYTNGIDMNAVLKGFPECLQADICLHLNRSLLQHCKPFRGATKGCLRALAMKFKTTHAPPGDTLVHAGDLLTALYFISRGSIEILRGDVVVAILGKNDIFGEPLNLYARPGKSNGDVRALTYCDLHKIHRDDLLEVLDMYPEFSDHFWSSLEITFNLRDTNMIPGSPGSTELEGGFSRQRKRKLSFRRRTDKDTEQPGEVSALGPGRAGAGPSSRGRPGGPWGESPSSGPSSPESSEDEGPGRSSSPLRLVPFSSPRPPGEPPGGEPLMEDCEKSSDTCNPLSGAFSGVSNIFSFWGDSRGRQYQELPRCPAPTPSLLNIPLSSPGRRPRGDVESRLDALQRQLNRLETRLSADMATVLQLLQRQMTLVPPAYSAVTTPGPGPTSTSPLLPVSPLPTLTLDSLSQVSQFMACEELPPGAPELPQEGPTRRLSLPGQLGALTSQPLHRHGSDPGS

Row | Structure (SMILES) | EC50 [1] [µM] | Emax [2] [%] | metabolised at 0.25 h, 5 µM [3] [%] | metabolised at 0.25 h, 5 µM [4] [%] | solubility [5] [µg/mL] | inhibition at 5 min, 3 µM (hERG) [%] | concentration at 0.5 h [6] [ng/g] | concentration at 1 h [7] [ng/g] | concentration at 1.5 h [8] [ng/g] | Kp at 1 h [9]
1 | CC(C)CCn1ccc(-c2ccc(Oc3cccnc3)cc2)c(C#N)c1=O | 0.479 | 231 | 21 | 29 | ≥ 4000 | 30 |  |  |  | 
2 | Cc1ccc(Oc2ccc(-c3ccn(CC4CC4)c(=O)c3C#N)cc2Cl)c(C)n1 | 0.064 | 196 | 25 | 27 |  | 89 | 750 | 357 | 240 | 0.1
3 | COc1ccc(-c2ccn(CCC(C)C)c(=O)c2C#N)cc1F | 1.17 | 160 | 35 |  |  |  |  |  |  | 
4 | CC(C)CCn1ccc(-c2ccc(OC3CCOCC3)c(Cl)c2)c(C#N)c1=O | 0.186 | 197 | 36 | 54 |  |  |  |  |  | 
5 | Cc1ccc(Oc2ccc(-c3ccn(CC4CC4)c(=O)c3C#N)cc2)c(C)n1 | 0.263 | 183 | 35 | 42 |  | 68 |  |  |  | 
6 | CC(C)CCn1ccc(-c2ccc(OC3CCCC3)c(Cl)c2)c(C#N)c1=O | 0.1 | 199 |  |  |  |  |  |  |  | 
7 | CC(C)CCn1ccc(-c2ccc(Oc3ccccn3)cc2)c(C#N)c1=O | 0.646 | 249 | 20 | 36 |  | 33 |  |  |  | 
8 | Cc1ncccc1Oc1ccc(-c2ccn(CCC(C)C)c(=O)c2C#N)cc1 | 0.275 | 256 | 57 | 45 |  | 36 |  |  |  | 
9 | CCCCn1ccc(-c2ccc(Oc3ccnc(C)c3)c(Cl)c2)c(C#N)c1=O | 0.166 | 245 | 35 | 51 |  |  |  |  |  | 
10 | CC(C)CCn1ccc(-c2ccc(Nc3ccncc3)cc2)c(C#N)c1=O | 1.48 | 186 | 25 | 33 |  | 91 |  |  |  | 
11 | CCCCn1ccc(-c2ccc(Oc3ccc(C)nc3C)c(Cl)c2)c(C#N)c1=O | 0.03 | 231 | 34 | 50 |  | 80 | 1480 | 830 | 281 | 0.4
12 | Cc1cc(Oc2ccc(-c3ccn(CC4CC4)c(=O)c3C#N)cc2)ccn1 | 0.832 | 199 | 9 | 19 |  |  |  |  |  | 
13 | CNc1ccc(-c2ccn(CCC(C)C)c(=O)c2C#N)cc1 | 0.46 | 186 |  |  |  |  |  |  |  | 
14 | Cc1ccc(Oc2ccc(-c3ccn(CCC(C)C)c(=O)c3C#N)cc2)c(C)n1 | 0.1 | 246 | 59 | 49 |  |  |  |  |  | 
15 | CC(C)CCn1ccc(-c2ccc(N3CCOCC3)cc2)c(C#N)c1=O | 2.04 | 236 | 38 | 48 |  |  |  |  |  | 
16 | CCCCn1ccc(-c2ccc(Oc3cc(C)nc(C)c3)c(F)c2)c(C#N)c1=O | 0.372 | 217 | 16 | 41 |  | 71 |  |  |  | 
17 | COc1ccc(-c2ccn(CCC(C)C)c(=O)c2C#N)cc1 | 1.15 | 160 |  |  |  |  |  |  |  | 

Row | Structure (SMILES) | EC50 [1] [µM] | Emax [2] [%] | metabolised at 0.25 h, 5 µM [3] [%] | metabolised at 0.25 h, 5 µM [4] [%] | solubility [5] [µg/mL] | inhibition at 5 min, 3 µM (hERG) [%] | concentration at 0.5 h [6] [ng/g] | concentration at 1 h [7] [ng/g] | concentration at 1.5 h [8] [ng/g] | Kp at 1 h [9]
18 | CCCCn1ccc(-c2ccc(Oc3ccnc(C)c3)cc2Cl)c(C#N)c1=O | 0.933 | 187 | 34 | 47 |  |  |  |  |  | 
19 | COc1cccc(-c2ccn(CCC(C)C)c(=O)c2C#N)c1 |  | 176 | 74 |  |  |  |  |  |  | 
20 | Cc1ncccc1Oc1ccc(-c2ccn(CC3CC3)c(=O)c2C#N)cc1Cl | 0.23 | 180 | 37 | 22 |  | 75 |  |  |  | 
21 | COc1ccccc1-c1ccn(CCC(C)C)c(=O)c1C#N | > 10 | 120 | 38 |  |  |  |  |  |  | 
22 | COc1ccc(-c2ccn(CCC(C)C)c(=O)c2C#N)cc1Cl | 0.363 | 200 | 43 | 99 |  |  |  |  |  | 
23 | CCCCn1ccc(-c2ccc(Oc3cccnc3C)c(Cl)c2)c(C#N)c1=O | 0.1 | 236 | 29 | 60 |  | 56 |  |  |  | 
24 | CCCCn1ccc(-c2ccc(Oc3ccc(C)nc3C)cc2)c(C#N)c1=O | 0.138 | 239 | 51 | 60 |  |  |  |  |  | 
25 | CCCCn1ccc(-c2ccc(Oc3ccnc(C)c3)cc2F)c(C#N)c1=O |  | 232 | 31 | 50 |  | 52 |  |  |  | 
26 | Cc1cc(Oc2ccc(-c3ccn(CC4CCC4)c(=O)c3C#N)cc2)ccn1 | 0.126 | 233 | 36 | 44 |  | 80 |  |  |  | 
27 | CCCCn1ccc(-c2ccc(Oc3cccnc3C)cc2)c(C#N)c1=O | 0.347 | 228 | 30 | 50 |  | 31 | 822 | 294 | 100 | 0.3
28 | Cc1ncccc1Oc1ccc(-c2ccn(CC3CC3)c(=O)c2C#N)cc1 | 1.07 | 155 | 36 | 39 |  |  |  |  |  | 
29 | CC(C)CCn1ccc(-c2ccccc2)c(C#N)c1=O | 8.51 | 117 | 36 | 100 |  |  |  |  |  | 
30 | CC(C)CCn1ccc(-c2ccc(OCC3CC3)cc2)c(C#N)c1=O | 0.29 | 192 | 17 | 16 |  |  |  |  |  | 
31 | COc1ccc(-c2ccn(CCC(C)C)c(=O)c2C#N)cc1OC | 0.26 | 242 | 26 |  |  |  |  |  |  | 
32 | CC(C)CCn1ccc(-c2ccc(OCC3CC3)c(Cl)c2)c(C#N)c1=O | 0.11 | 206 | 17 | 72 |  |  |  |  |  | 
33 | CC(C)CCn1ccc(-c2ccc(NC3CCOCC3)c(Cl)c2)c(C#N)c1=O | 0.174 | 247 | 42 | 47 |  |  |  |  |  | 
